Entries after “also recorded” stand apart in the source; their conditions may differ.
Key:
HSP70 = details: cited from earlier work
[1] = test system: vesicular stomatitis virus protein; details: Rossi et al., J. Biol. Chem. 271, 32192 (1996); cited from earlier work
HL-60 cells [2] = test: MTT growth inhibition of HL-60; type: cell-based, human; details: for inhibition activity of the growth of cancer cells (in words): Example 5; for activity at 10 µM / activity at 20 µM / activity at 40 µM: read-out: degree of cell growth (ratio of absorbance at 590 nm of sample-added section to control)
Description: (§1) (2) To each of the wells of a 96-well microtiter plate was added 8, 40, 200 or 1000 μM aqueous solution of GM or 10 μl of water as a control. HL-60 (ATCC CCL-240) was suspended in an RPMI 1640 medium containing 10% of fetal calf serum to make the concentration 5×10^4 cells/ml and each 90 μl thereof was placed in each well of the above-mentioned microtiter plate and incubated at 37° C. for 48 hours in the presence of 5% carbon dioxide. Incubation was conducted for four hours more after addition of 10 μl of a solution (5 mg/ml) of 3-(4,5-dimethylthiazol-2-yl)-2,5-diphenyltetrzolium bromide (MTT; manufactured by Sigma) in a phosphate-buffered saline solution and the state of growth of the cells was observed under a microscope. Further, 100 μl of 2-propanol containing 0.04N hydrochloric acid was added followed by stirring and an absorbance at 590 nm was measured.
(3) To each well of the 96-well microtiter plate was added 100, 200 or 400 μM aqueous solution of GM or CM or 10 μl of water as a control and the inhibition activity of growth of HL-60 was measured by the same method as mentioned in Example 5-(2). The degree of cell growth was, however, expressed in terms of the ratio (%) of the absorbance at 590 nm of the sample-added section to that of the water-added section (the control).
(§2) (5) To each well of the 96-well microtiter plate was added 4.12, 12.3, 37.0, 111, 333 or 1000 μM aqueous solution of GD or 10 μl of water as a control. HL-60 (ATCC CCL-240) was suspended in an RPMI 1640 medium containing 10% of fetal calf serum to make the concentration 5×10^4 cells/ml and each 90 μl thereof was placed in each well of the above-mentioned microtiter plate followed by incubating at 37° C. for 48 hours in the presence of 5% carbon dioxide gas. The incubation was conducted for four hours more after addition of 10 μl of 5 mg/ml solution of 3-(4,5-dimethylthiazol-2-yl)-2,5-diphenyltetrazolium bromide (MTT; manufactured by Sigma) in a phosphate-buffered saline solution and the state of growth of the cells was observed under a microscope. In the meanwhile, 100 μl of 2-propanol containing 0.04N HCl was added followed by well stirring and the absorbance at 590 nm was measured.
(6) Cyclopentenone and L-cysteine hydrochloride were dissolved in a phosphate buffered saline solution (pH 7.2) to make their concentrations 55 mM and 80 mM, respectively and made to react at 37° C. for 15 minutes at pH 7.2. Apart of the reaction solution was analyzed by a reversed phase HPLC using a column of TSK gel ODS-80Ts (4.6 mm×250 mm; manufactured by Tosoh)at the flow rate of 1 ml/minute using 0.1% aqueous solution of trifluoroacetic acid as a mobile phase whereupon no cyclopentenone was detected. This reaction solution was a solution containing 55 mM of CD.
Degree of cell growth was, however, expressed in terms of the ratio (%) of the absorbance at 590 nm of the section to which the sample was added to that of the control where water was added.

HL-60 cells [3] = test: Apoptosis in HL-60 cells (apoptic bodies, DNA fragmentation); type: cell-based, human; details: at each of the cell-growth-inhibiting concentrations
Description: (1) Each 0.5 ml of 0.2 mM CM, 0.8 mM CM or 1.6 mM CM was added to 4.5 ml of RPMI 1640 medium containing 10% of fetal calf serum and 2.5×10^5HL-60 cells (promyelocytic leukemia cell) (ATCC CCL-240) and incubated at 37° C. for 24 hours or 48 hours in the presence of 5% carbon dioxide gas and the numbers of viable cells were measured.
as §1
(4) HL-60 cells (ATCC CCL240) which were incubated at 37° C. in an RPMI 1640 medium (manufactured by Nissui) containing 10% of fetal calf serum (manufactured by Gibco) treated at 56° C. for 30 minutes were suspended in the above medium to make the concentration 2.5×10^5cells/4.5 ml. To this suspension was added 0.5 ml of 100 μM aqueous solution of GM (final concentration: 10 μM) followed by incubating at 37° C. in the presence of 5% carbon dioxide gas for 24 hours, 48 hours and 72 hours.
as §2

mouse leukemia P-388 = test: Mouse leukemia P-388 survival (macrobiotic effect) in DBA/2 mice; type: in vivo; details: 10 mg/kg/day i.p., five days
Description: GM was diluted with a physiological saline solution to a predetermined concentration and subjected to the following tests.
(2) Mouse leukemia P-388 (1.1×10^6 cells/mouse) was intraperitoneally injected to female DBA/2 mice (body weight: about 20 g) of seven weeks age. After that, GM, CM, GD or CD (10 mg/kg/day) was intraperitoneally injected for consecutive five clays. In the meanwhile, a physiological saline solution was intraperitoneally injected to the control group by the same manner. In the two group each consisting of eight mice, survived numbers, average survived days and macrobiotic rate of the mice were calculated.

Sarcoma-180 = test: Sarcoma-180/ICR mice macrobiotic effect; type: in vivo
IMC = test: IMC/CDF1 mice macrobiotic effect; type: in vivo
EAC = test: EAC/DDY mice macrobiotic effect; type: in vivo
[4] = test system: Bacillus subtilis IFO 3021; test: Antibacterial activity, viable cell numbers; type: cell-based; details: compared with GM
Description: Bacillus subtilis IFO 3021 was incubated (by mans of a seed culture) overnight in a sensitive bouillon medium (manufactured by Nissui). Absorbance at 600 nm was measured and viable cell numbers were calculated from the previously-prepared calibration curve showing the relation between the viable cell numbers and absorbance at 600 nm. The seed-cultured liquid was diluted with a fresh sensitive bouillon medium to make the concentration 1×10^6 cells/ml and each 180 μl thereof was placed in each well of the 96-well microtiter plate. Each 20 μl of aqueous solution of GM (4 mg/ml or 2 mg/ml) or water was added to each well followed by allowing to a stationary culture at 37° C. for one night (main incubation) In the meanwhile, a part of the seed culture liquid was diluted with sterilized water, spread onto a sensitive bouillon agar plate medium and incubated at 37° C. for one night and the colonies were counted to measure the precise viable cell numbers.
The cultured liquid in each of the wells was diluted with sterilized water, spread onto a sensitive bouillon agar plate medium and incubated at 37° C. for one night and the colonies were counter to measure the viable cell numbers.

HSP70 and HSP90 = details: Amici et al., J. Virology 68, 6890 (1994); cited from earlier work
[5] = test system: Sendai virus protein synthesis; details: Amici et al., J. Virology 68, 6890 (1994); cited from earlier work

Row | Structure (SMILES) | synthesis of HSP70 (HSP70; Rossi et al., J. Biol. Chem. 271, 32192 (1996)) | concentration required for inducing the HSP70 (HSP70) | synthesis of vesicular stomatitis virus protein [1] | inhibition activity of the growth of cancer cells (in words) (HL-60 cells [2]) | activity at 10 µM (HL-60 cells [2]; Homo sapiens, HL-60, 48 hours) [%] | activity at 20 µM (HL-60 cells [2]; Homo sapiens, HL-60, 48 hours) [%] | activity at 40 µM (HL-60 cells [2]; Homo sapiens, HL-60, 48 hours) [%] | IC100 (HL-60 cells [2]; Homo sapiens, HL-60, 48 hours, MTT, final concentration, read-out: concentration at which growth of HL-60 cells was completely inhibited) [µM] | apoptic bodies in the cells (HL-60 cells [3]) | macrobiotic effect (average survived days) (mouse leukemia P-388) | macrobiotic effect (Sarcoma-180) | macrobiotic effect (IMC) | macrobiotic effect (EAC) | antibacterial activity (in words) [4] | synthesis of HSP70 and HSP90 (HSP70 and HSP90) | synthesis of virus protein [5]
1 | O=C1C=CCC1 [2-cyclopenten-1-one] | induces the synthesis of HSP70 | several hundred | inhibits the synthesis of vesicular stomatitis virus protein |  |  |  |  |  |  |  |  |  |  |  |  | 
2 | N[C@@H](CCC(=O)N[C@@H](CSC1CC(=O)C(O)C1O)C(=O)NCC(=O)O)C(=O)O (some centres unmarked) [GD, 2,3-dihydroxy-4-glutathion-S-yl-cyclopentanone] |  |  |  | inhibition activity of the growth of cancer cells | 47.2 | 5.8 | 2.1 | 3.7 | apoptic bodies were detected; also recorded: Apoptic bodies were produced in the cells | significant macrobiotic effect | same macrobiotic effect | same macrobiotic effect | same macrobiotic effect | same results |  | 
3 | CCCCC[C@H](O)/C=C/[C@H]1C=CC(=O)[C@@H]1CCCCCCC(=O)O [prostaglandin Al] |  |  |  |  |  |  |  |  |  |  |  |  |  |  | synthesis of HSP70 and HS?90 is induced | synthesis of virus protein is inhibited
4 | N[C@@H](CSC1CC(=O)C(O)C1O)C(=O)O (some centres unmarked) [CD] |  |  |  | inhibition activity of the growth of cancer cells | 89 | 56.2 | 5.3 |  | Apoptic bodies were produced in the cells | significant macrobiotic effect | same macrobiotic effect | same macrobiotic effect | same macrobiotic effect | same results |  | 

From patent US6177592A, “Compounds” (priority 1997, dated 2001)
